pIC50: −log10 of the molar value.
Tests used:
[1] = target: T1, Type-2 angiotensin II receptor (Rattus norvegicus, UniProt P35351); assay: In vitro binding affinity towards Angiotensin II receptor, type 2 determined as its ability to displace 125I-Sarl,Ile8-AII from the receptor expressed in rat midbrain membrane.; assay type: cell membranes
T1 sequence (P35351 whole entry): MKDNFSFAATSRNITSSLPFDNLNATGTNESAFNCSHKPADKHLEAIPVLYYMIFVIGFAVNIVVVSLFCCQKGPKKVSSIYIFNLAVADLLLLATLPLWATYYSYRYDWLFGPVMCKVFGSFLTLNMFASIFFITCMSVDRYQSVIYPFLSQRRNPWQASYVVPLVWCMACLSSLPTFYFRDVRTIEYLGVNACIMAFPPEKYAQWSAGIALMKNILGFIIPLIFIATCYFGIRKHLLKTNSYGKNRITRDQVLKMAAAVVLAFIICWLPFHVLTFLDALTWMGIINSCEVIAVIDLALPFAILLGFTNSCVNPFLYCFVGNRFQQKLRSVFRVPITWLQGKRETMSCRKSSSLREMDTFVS

[2] = target: T2, Type-1 angiotensin II receptor (Oryctolagus cuniculus, UniProt P34976); assay: In vitro binding affinity towards Angiotensin II type 1-AT1 receptor determined as its ability to displace 125I-Sarl,Ile8-AII from the receptor expressed in rabbit aorta membrane.; assay type: cell membranes
T2 sequence (P34976 whole entry): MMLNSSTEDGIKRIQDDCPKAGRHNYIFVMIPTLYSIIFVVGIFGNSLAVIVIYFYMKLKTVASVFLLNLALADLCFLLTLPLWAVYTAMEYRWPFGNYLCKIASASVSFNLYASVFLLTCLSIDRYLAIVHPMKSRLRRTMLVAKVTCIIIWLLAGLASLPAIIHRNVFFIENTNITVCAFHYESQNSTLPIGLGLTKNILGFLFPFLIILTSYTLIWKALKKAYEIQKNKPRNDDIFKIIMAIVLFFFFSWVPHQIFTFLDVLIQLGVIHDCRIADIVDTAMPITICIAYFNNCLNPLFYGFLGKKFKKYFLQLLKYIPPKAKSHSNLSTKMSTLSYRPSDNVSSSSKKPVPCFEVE

Rattus norvegicus = assay: In vivo potency for the inhibition of pressor response in normotensive rats (i.v.); assay type: functional

pIC50 [1]	pIC50 [2]	SMILES	Activity (Rattus norvegicus) [mg/kg]
< 4.70	–	CCc1nc2c(C)cc(C)nc2n1Cc1ccc(-c2ccccc2-c2nnn[nH]2)cc1 [L-158809]	–
< 4.70	7.22	CCCc1nc2c(C)ccnc2n1Cc1ccc(-c2cccnc2-c2nn[nH]n2)cc1	–
–	9.00	CCCc1nc2c(C)ccnc2n1Cc1ccc(-c2ccccc2-c2nn[nH]n2)cc1	–
< 4.70	–	CCCc1nc2c(C)ccnc2n1Cc1ccc(-c2ncccc2-c2nn[nH]n2)cc1	–
< 4.70	8.40	CCCc1nc2c(C)ccnc2n1Cc1ccc(-c2ccncc2-c2nn[nH]n2)cc1	0.1

— ChEMBL document CHEMBL1126535, “Angiotensin II receptor antagonists containing a phenylpyridine element” (Bioorg Med Chem Lett, 1993)
